Values belong to the molecule of their own block, whether it stands above or below them. Activity calls are given as the source filed them. Rule as the data show it, for most assays here: actives have a measured EC50 and inactives only a lower limit.
Columns and labels:
[1] = target: T1, RNA-binding protein pos-1 (Caenorhabditis elegans, UniProt G5EF15); assay: disruptors of C. elegans POS-1 RNA interaction – biochemical, fluorescence polarization, dose response (AID 1964);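 also: purified POS-1 fused to maltose binding protein made in E. coli; potency of compounds blocking POS-1 binding to fluorescent RNA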
T1 sequence (G5EF15 whole entry): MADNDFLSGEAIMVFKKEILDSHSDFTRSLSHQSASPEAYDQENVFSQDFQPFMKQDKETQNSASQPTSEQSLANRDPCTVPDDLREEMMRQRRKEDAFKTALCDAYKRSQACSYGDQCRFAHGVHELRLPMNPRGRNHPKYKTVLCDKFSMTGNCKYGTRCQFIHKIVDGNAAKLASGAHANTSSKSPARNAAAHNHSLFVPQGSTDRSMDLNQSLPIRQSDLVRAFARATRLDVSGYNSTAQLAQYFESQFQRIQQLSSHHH

[2] = target: T2, Zinc finger protein mex-5 (Caenorhabditis elegans, UniProt Q9XUB2); assay: potency of MEX-5 RNA-binding blockers – biochemical, C. elegans, fluorescence polarization, dose response (AID 1960)
T2 sequence (Q9XUB2 whole entry): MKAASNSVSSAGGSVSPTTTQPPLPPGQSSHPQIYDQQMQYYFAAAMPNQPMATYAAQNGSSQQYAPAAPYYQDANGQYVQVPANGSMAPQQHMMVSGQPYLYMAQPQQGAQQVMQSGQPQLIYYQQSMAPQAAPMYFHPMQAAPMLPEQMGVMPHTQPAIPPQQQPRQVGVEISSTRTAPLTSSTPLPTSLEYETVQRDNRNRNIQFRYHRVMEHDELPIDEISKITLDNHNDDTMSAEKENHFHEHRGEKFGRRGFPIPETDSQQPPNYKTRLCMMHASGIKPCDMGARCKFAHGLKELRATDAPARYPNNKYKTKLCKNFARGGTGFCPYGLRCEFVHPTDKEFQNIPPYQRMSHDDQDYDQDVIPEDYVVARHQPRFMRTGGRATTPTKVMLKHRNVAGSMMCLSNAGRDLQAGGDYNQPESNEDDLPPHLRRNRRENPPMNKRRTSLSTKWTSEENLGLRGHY

Fatty acid synthase [3] = target: T3, Fatty acid synthase (Homo sapiens, UniProt P49327); assay: inhibition of human FAS-TE enzyme activity – biochemical, endpoint fluorescence intensity, uHTS hits, dose response (AID 624327); format: functional;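 also: fluorescence from hydrolysis of an O-methyl fluorescein acyl ester substrate by the enzyme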
Fatty acid synthase [4] = target: T3, Fatty acid synthase; assay: inhibition of human FAS-TE enzyme activity – biochemical, kinetic fluorescence intensity, dose response (AID 624326); format: functional;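 also: rate of fluorescence rise from hydrolysis of a fluorogenic O-methyl fluorescein ester substrate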
[5] = target: T4, Rac GTPase-activating protein 1 (Homo sapiens, UniProt Q9H0H5); assay: blockers of MgcRacGAP-driven Rac1 GTP hydrolysis – biochemical, ADP Hunter fluorescence, primary and confirmatory, confirmation (AID 624330); format: functional
T4 sequence (Q9H0H5 whole entry): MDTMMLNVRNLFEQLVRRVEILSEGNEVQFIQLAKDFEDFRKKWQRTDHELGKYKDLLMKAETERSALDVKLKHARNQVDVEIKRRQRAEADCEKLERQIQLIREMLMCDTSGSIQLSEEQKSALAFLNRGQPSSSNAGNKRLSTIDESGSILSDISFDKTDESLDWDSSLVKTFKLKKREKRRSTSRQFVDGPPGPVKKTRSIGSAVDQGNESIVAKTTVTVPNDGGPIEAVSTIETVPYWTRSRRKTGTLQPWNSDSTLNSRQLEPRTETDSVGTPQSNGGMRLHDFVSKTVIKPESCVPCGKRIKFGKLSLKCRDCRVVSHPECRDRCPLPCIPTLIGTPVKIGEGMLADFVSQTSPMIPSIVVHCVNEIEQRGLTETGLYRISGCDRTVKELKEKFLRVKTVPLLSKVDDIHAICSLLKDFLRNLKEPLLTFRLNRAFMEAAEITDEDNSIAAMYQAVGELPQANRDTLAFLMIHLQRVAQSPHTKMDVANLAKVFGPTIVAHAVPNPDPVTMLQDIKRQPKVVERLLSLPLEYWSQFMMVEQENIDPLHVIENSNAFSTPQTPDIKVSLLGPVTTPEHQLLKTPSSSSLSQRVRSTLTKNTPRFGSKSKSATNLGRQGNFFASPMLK

[6] = target: T5, Calpain-2 catalytic subunit (Sus scrofa, UniProt P43367); assay: m-calpain protease blockers, concentration series – biochemical, fluorogenic peptide substrate, dose response (AID 1420); format: functional
T5 sequence (P43367 whole entry): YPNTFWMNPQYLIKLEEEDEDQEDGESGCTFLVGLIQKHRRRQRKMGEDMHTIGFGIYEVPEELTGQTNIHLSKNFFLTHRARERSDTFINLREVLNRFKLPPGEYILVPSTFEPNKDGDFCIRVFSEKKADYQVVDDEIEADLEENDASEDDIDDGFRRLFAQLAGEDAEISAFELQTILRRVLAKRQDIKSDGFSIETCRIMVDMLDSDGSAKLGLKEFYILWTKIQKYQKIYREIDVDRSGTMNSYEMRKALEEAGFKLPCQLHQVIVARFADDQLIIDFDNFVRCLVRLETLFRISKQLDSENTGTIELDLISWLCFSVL

[7] = target: FAD-linked sulfhydryl oxidase ALR (Homo sapiens, UniProt P55789); assay: ALR-catalysed DTT oxidation blockers – biochemical, H2O2 detection, luminescence, cherry-pick, dose response (AID 493248)
BJ [8] = assay: BJ-TERT fibroblast viability loss – cell-based, RAS-independent, luminescence, dose response (AID 1933); format: functional; conditions: Homo sapiens
BJ [9] = assay: cells; format: functional, cell-based; conditions: Homo sapiens
BJ [10] = assay: BJ-TERT-LT-ST fibroblast viability loss – cell-based, RAS-independent, luminescence, dose response (AID 1935); format: functional; conditions: Homo sapiens;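 also: BJ fibroblasts immortalized with TERT plus LT and ST oncogenes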
[11] = DRD fibroblast viability loss – cell-based, non-viral oncogenic, luminescence, dose response (AID 1934); format: functional; conditions: Homo sapiens
[12] = Trypanosoma cruzi growth suppression in host cells – NIH3T3 host cells, beta-gal luminescence, confirmation (AID 2044); format: functional, cell-based;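 also: intracellular parasites grown in NIH/3T3 mouse fibroblasts as host cells; luminescent beta-galactosidase reporter signal from transgenic T. cruzi replicating inside host cells; inhibitors lower the luminescence signal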
[13] = NIH3T3 cell viability loss – ATP luminescence, mouse fibroblasts, counter-screen, dose response (AID 2010); format: functional, cell-based;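 also: cells exposed to compound for about 90 hours before reading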
[14] = target: Luciferin 4-monooxygenase (Photinus pyralis, UniProt P08659); assay: inhibition of purified Photinus pyralis luciferase – biochemical, luminescence, dose response (AID 1891)
[15] = Luminescence Cell-Based Dose Confirmation HTS to Identify Inhibitors of Platelet Dense Granule Release. [Related pubchem assays: 1663 (Primary HTS), 1678 (Summary of Project)]; format: functional
[16] = target: Heat shock protein HSP 90-alpha (Homo sapiens, UniProt P07900); format: functional, organism-based
INS1 = assay: INS-1E survival protection against cytokine death – cell-based, luminescence, retest, dose response (AID 449756); format: functional; conditions: Rattus norvegicus;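 also: cell death triggered by IL-1 beta plus TNF-alpha plus IFN-gamma mixture; protective hits raise ATP signal compared with cytokine alone wells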
[17] = target: T6, Heat shock factor protein 1 (Mus musculus, UniProt P38532); assay: decrease of HSF1-responsive luciferase luminescence – cell-based, NIH3T3, dose retest, confirmation (AID 2382); format: functional;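 also: NIH3T3 fibroblasts with HSF1-driven luciferase reporter stressed by proteasome inhibitor MG132; luminescence from HSF1-driven luciferase expression after 8 hours of MG132 stress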
T6 sequence (P38532 whole entry): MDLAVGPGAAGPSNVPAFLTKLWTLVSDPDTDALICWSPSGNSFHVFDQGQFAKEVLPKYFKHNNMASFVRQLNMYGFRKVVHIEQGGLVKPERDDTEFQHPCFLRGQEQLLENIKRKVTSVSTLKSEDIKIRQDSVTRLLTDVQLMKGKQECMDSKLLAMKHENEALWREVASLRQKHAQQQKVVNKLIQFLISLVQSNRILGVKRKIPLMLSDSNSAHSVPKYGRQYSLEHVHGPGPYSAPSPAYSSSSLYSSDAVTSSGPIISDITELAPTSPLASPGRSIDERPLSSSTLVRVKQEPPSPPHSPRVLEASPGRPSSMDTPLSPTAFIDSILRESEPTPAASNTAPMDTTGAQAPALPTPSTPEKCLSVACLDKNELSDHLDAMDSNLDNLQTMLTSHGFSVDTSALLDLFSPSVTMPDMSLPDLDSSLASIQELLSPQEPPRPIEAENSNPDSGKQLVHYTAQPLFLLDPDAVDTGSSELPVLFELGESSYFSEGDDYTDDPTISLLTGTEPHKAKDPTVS

[18] = target: T6, Heat shock factor protein 1; assay: enhancement of HSF1-driven luciferase signal – cell-based, NIH3T3, luminescence, dose retest, confirmation (AID 435004); format: functional;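 also: stress induced by proteasome inhibitor MG132 added 30 min after compound; luciferase reporter driven by HSF1 response element in NIH3T3 cells; actives raise luminescence as potentiators of the MG132 stress response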
SN12K1 = assay: cells; format: functional; conditions: Homo sapiens

T3 sequence (P49327 whole entry): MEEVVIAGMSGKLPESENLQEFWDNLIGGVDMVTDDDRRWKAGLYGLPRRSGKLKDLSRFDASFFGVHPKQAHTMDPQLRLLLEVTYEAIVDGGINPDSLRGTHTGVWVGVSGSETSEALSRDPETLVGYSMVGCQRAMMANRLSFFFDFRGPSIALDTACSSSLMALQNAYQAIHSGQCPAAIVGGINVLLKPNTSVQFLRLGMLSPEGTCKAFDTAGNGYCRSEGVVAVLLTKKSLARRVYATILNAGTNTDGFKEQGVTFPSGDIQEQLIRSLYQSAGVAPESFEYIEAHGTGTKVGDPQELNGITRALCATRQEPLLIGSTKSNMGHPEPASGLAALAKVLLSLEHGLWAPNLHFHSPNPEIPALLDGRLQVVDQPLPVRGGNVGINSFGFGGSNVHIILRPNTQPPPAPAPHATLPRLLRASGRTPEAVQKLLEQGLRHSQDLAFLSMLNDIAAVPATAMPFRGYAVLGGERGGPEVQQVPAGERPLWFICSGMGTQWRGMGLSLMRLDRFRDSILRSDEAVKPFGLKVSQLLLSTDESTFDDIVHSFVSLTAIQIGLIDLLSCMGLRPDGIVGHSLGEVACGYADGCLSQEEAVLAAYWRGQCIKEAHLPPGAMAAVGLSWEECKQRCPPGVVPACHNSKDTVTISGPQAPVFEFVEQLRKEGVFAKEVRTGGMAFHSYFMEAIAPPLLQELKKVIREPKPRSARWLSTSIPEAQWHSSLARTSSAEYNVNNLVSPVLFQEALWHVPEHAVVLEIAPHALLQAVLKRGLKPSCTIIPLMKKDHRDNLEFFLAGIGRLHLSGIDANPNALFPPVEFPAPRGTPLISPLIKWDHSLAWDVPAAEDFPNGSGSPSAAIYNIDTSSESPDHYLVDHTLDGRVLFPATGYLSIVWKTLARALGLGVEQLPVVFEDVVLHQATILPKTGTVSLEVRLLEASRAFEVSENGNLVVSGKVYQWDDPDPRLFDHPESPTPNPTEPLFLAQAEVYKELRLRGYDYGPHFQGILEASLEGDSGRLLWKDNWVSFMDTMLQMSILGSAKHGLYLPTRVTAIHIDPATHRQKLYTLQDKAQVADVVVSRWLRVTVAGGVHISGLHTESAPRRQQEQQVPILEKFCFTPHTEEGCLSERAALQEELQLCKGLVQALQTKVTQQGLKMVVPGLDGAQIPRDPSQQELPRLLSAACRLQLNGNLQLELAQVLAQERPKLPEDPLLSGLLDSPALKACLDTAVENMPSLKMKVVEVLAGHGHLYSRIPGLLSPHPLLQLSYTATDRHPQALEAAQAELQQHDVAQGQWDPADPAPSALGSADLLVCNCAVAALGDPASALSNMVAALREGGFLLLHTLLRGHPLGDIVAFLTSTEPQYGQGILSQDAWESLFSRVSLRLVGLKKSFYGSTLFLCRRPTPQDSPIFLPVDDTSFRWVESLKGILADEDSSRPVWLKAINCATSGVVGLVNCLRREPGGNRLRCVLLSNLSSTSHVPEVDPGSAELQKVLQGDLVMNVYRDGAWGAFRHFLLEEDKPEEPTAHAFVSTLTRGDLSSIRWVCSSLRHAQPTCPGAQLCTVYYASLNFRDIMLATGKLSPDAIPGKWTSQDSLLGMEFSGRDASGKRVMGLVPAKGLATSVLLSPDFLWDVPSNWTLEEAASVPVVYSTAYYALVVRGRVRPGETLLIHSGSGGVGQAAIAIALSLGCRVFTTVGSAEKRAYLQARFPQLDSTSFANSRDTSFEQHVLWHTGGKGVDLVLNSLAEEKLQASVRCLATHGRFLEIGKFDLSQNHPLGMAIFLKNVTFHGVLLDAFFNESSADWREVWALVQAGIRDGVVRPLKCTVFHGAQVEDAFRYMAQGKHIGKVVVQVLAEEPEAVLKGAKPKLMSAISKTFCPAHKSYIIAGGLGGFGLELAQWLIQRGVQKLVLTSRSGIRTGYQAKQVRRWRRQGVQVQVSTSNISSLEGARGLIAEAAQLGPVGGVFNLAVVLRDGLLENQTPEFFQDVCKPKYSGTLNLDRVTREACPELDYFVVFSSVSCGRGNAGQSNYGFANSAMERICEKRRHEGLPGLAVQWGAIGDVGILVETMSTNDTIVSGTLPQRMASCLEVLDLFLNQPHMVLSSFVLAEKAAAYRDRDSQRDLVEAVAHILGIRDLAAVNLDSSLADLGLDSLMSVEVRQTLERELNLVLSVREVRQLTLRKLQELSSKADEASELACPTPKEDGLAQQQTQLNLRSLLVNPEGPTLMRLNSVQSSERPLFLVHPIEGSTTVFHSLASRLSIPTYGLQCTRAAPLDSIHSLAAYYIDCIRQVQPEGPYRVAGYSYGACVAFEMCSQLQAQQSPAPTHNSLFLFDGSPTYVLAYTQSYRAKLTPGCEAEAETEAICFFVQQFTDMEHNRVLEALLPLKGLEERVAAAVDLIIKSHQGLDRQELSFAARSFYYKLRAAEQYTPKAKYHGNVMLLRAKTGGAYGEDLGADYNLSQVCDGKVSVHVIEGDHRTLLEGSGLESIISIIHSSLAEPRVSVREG
Chain of FAD-linked sulfhydryl oxidase ALR (P55789 whole entry): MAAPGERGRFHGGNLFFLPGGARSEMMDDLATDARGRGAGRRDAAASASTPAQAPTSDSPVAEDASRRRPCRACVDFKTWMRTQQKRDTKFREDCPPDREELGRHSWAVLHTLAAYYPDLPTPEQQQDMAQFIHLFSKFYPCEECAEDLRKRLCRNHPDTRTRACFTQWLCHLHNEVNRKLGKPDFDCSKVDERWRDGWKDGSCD
Chain of Luciferin 4-monooxygenase (P08659 whole entry): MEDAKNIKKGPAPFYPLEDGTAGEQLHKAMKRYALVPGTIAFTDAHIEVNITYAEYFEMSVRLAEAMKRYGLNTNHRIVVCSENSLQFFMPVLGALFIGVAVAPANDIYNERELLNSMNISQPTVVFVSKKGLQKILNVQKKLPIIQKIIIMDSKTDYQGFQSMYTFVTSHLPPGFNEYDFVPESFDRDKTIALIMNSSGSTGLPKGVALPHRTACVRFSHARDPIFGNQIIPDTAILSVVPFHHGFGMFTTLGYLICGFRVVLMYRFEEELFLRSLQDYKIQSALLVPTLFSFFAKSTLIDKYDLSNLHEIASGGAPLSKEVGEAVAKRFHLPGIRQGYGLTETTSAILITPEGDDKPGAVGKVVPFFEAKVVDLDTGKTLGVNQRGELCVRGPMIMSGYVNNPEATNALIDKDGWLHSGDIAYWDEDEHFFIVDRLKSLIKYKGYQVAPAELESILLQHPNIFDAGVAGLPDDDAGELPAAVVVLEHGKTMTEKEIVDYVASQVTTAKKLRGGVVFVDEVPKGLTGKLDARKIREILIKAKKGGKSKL

Structure (SMILES): C[C@@]12C(=O)Nc3ccccc3C(=O)N1[C@H]1c3cc(Br)ccc3OC[C@@H]1[C@@H]2c1ccccc1
- IC50 (Fatty acid synthase [3]): 16.2 µM (active)
- IC50 (Fatty acid synthase [4]): 11.8 µM (active)

Structure (SMILES): O=C(COC(=O)c1cc([N+](=O)[O-])ccc1N1CCOCC1)Nc1cc(F)ccc1F
- IC50 (Fatty acid synthase [3]): 2.25 µM (active)
- IC50 (Fatty acid synthase [4]): 1.57 µM (active)

Structure (SMILES): O=C(O)c1cc(NN=Nc2ccc(Br)cc2)cc([N+](=O)[O-])c1
- IC50 [6]: 12.6 µM (not active)
- IC50 (Fatty acid synthase [3]): 5.49 µM (active)
- IC50 (Fatty acid synthase [4]): 6.81 µM (active)

Structure (SMILES): COc1ccc(NC2CCCN(C(=O)CCc3cn[nH]c3)C2)cc1 (centres undefined)
- AC50 [7]: 2.19 µM (active)
- IC50 [5]: 108 µM (active)

Structure (SMILES): CC1CCc2nn(CC(=O)NCCN3CCCCC3C)cc2C1 (centres undefined)
- EC50 [1]: > 300 µM (not active)
- EC50 [2]: > 300 µM (not active)

Structure (SMILES): O=C1Nc2ccccc2/C1=C1\SC(=S)N(Cc2ccccc2Cl)C1=O
- EC50 (BJ [8]): 10.8 µM (inconclusive)
- EC50 (BJ [9]): > 150 µM (not active)
- EC50 (BJ [10]): > 75 µM (inconclusive)
- EC50 [11]: 23 µM (active)

Structure (SMILES): O=C(NCCOc1ccccc1)c1cc(C(=O)NCCOc2ccccc2)cc([N+](=O)[O-])c1
- EC50 [12]: 1.28 µM (active)
- EC50 [13]: > 60 µM (not active)
- IC50 (Fatty acid synthase [3]): 5.6 µM (active)
- IC50 (Fatty acid synthase [4]): 2.75 µM (active)

Structure (SMILES): Cc1cnc(C(=O)Oc2ccc(-c3ccccc3)cc2)cn1
- IC50 [5]: 12.5 µM (active)

Structure (SMILES): O=[N+]([O-])c1ccc(N=Nc2c(Cl)cc(O)cc2Cl)cc1
- EC50 (BJ [8]): 5.98 µM (active)
- EC50 (BJ [9]): 4.44 µM (active)
- EC50 [14]: 0.137 µM (active)
- EC50 [15]: 1.98 µM (active)
- EC50 (BJ [10]): 5.78 µM (active)
- EC50 [11]: 4.74 µM (active)
- AC50 [16]: 0.574 µM (active)
- AC50 (INS1): 1.73 µM (active)

Structure (SMILES): CCC1=Nc2cc(C(=O)NCCN3CCOCC3)ccc2Sc2ccccc21
- EC50 (BJ [8]): > 150 µM (not active)
- EC50 (BJ [9]): > 150 µM (not active)
- EC50 (BJ [10]): > 150 µM (not active)
- EC50 [11]: > 150 µM (not active)

Structure (SMILES): Cc1cccc(COC[C@H](CC(C)C)N2CCN(C(=O)c3ccc(C(C)(C)C)cc3)CCC2=O)c1
- IC50 (Fatty acid synthase [3]): 7.65 µM (active)
- IC50 (Fatty acid synthase [4]): 7.54 µM (active)

Structure (SMILES): C/C(=N\NC(=O)CC1N=C(Cc2ccccc2)NNC1=O)c1ccc(C)cc1 (centres undefined)
- EC50 (BJ [8]): > 150 µM (not active)
- EC50 (BJ [9]): > 150 µM (not active)
- EC50 (BJ [10]): > 150 µM (inconclusive)
- EC50 [11]: 44.3 µM (active)
- EC50 [18]: > 260 µM (inactive)

Structure (SMILES): CN1CCCCC/C1=N\c1ccccc1C#N
- IC50 [5]: 113 µM (active)

Structure (SMILES): C[C@@](O)(/C=C/[C@H]1CC=CC(=O)O1)[C@@H](C[C@@H](O)\C=C/C=C\C=C\CO)OP(=O)(O)O [FOSTRIECIN SODIUM]
- GI50 (SN12K1): 3.72 µM (inactive)

Other lines, results leading:

- EC50 [1]: > 300 µM (not active)
- EC50 [2]: 55.8 µM (active)
Structure (SMILES): Cc1ccc(-n2c(=O)c(C#N)cc3c(=O)n4ccccc4nc32)cc1C

- EC50 [1]: > 300 µM (not active)
- EC50 [2]: > 300 µM (inconclusive)
Structure (SMILES): COc1ccccc1C(=O)Nc1ccnn1C1CCN(C(C)CSC)CC1 (centres undefined)

- IC50 (Fatty acid synthase [3]): 8.65 µM (active)
- IC50 (Fatty acid synthase [4]): 6.81 µM (active)
Structure (SMILES): Cc1csc(NC(=O)C2CCN(S(=O)(=O)c3ccc4c(c3)oc(=O)n4C)CC2)n1

- IC50 (Fatty acid synthase [3]): 5.24 µM (active)
- IC50 (Fatty acid synthase [4]): 3.44 µM (active)
Structure (SMILES): COc1ccc(-n2c(SCc3ccc([N+](=O)[O-])cc3)nnc2-c2ccccc2)cc1

- IC50 [5]: 75.4 µM (active)
Structure (SMILES): O=C(c1ccccc1)c1coc2ccc(O)c(Cl)c12

- IC50 [5]: 149 µM (active)
Structure (SMILES): COc1ccc(CNCc2cccc(OC)c2OC)cc1Br

- EC50 [17]: > 195 µM (not active)
- IC50 [5]: 57.7 µM (active)
Structure (SMILES): CN(C)c1ccc(NS(=O)(=O)c2cc(Cl)ccc2Cl)cc1

- EC50 [1]: > 300 µM (not active)
- EC50 [2]: > 300 µM (not active)
Structure (SMILES): Cc1ccc(NC(=O)Cn2c(=O)c(C)nc3ccccc32)cc1

- IC50 (Fatty acid synthase [3]): 5.88 µM (active)
- IC50 (Fatty acid synthase [4]): 4.94 µM (active)
Structure (SMILES): CCN(C(=O)CSc1ncnc2c1cnn2-c1ccccc1)C1CCS(=O)(=O)C1 (centres undefined)

- IC50 [5]: 209 µM (active)
Structure (SMILES): O=C(CCC1CCCC1)N1CCN(C2CCCC2)CC1

- IC50 [5]: 37.9 µM (active)
Structure (SMILES): CC/N=C1\S/C(=C\c2ccc(O)c(OCC)c2)C(=O)N1CC

Reference: ChEMBL document CHEMBL1201862, “PubChem BioAssay data set” (2004)
